Paper PMC6010111, “Synthesis, biological evaluation and molecular modeling studies on novel quinonoid inhibitors of CDC25 phosphatases” (Journal of Enzyme Inhibition and Medicinal Chemistry, 2016)

Columns and labels:
Format in all cases: biochemical
[1] = biological target: T1, human CDC25A (recombinant GST-CDC25) (Homo sapiens, UniProt P30304); experiment: CDC25A dephosphorylation assay with 3-O-methylfluorescein phosphate (fluorimetric); conditions: for IC50: mean of triplicates ± SD; for remaining activity at 100 µM: 100 µM compound, DMSO control = 100%, read-out: residual activity of CDC25A
T1 construct: made in house; host or cells: Escherichia coli BL21-DE3 pLys S
T1 sequence (P30304 1-524): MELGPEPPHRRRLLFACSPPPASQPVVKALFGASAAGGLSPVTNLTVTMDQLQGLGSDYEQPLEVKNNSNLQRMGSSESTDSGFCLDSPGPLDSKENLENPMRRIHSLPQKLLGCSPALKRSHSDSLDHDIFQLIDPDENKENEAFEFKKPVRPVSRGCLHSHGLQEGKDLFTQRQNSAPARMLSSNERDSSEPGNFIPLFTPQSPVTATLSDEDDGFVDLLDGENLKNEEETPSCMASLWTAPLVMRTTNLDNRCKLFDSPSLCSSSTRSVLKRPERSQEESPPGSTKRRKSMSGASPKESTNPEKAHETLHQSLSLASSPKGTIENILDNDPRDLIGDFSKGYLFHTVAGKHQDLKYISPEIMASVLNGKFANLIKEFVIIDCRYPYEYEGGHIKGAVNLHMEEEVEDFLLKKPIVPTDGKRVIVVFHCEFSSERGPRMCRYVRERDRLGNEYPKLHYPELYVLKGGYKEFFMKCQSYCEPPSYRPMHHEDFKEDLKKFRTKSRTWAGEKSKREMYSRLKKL
Source text: (§1) Human glutathione-S-transferase (GST)-Cdc25 recombinant enzymes were used to evaluate the inhibitory potential of compounds.
(§2) Recombinant human GST-CDC25 proteins were produced as previously described by Brault et al.[25] Briefly, the GST-tagged Cdc25s were expressed in the bacterial expression system Escherichia coli BL21-DE3 pLys S, transformed by a plasmidic vector (pGEX 2T) containing the sequences encoding full length CDC25. Production of recombinant proteins was induced via an IPTG induction system. Then, cells were lysed and centrifuged to recover the supernatant which was purified with a GSH-agarose column system, and recombinant GST-CDC25 proteins were eluted and collected in fractions. Activity, purity and protein concentration of the fractions were evaluated.
(§3) CDC25 enzymatic activity was measured by a dephosphorylation assay with 3-O methyl fluorescein phosphate as described. Briefly, the assay was performed in 96-well plates in buffer [50 mM Tris–HCl, 50 mM NaCl, 1 mM EDTA and 0.1% SAB, pH 8.1], 3-O-methylfluorescein phosphate was used as substrate. After 2 h at 30 °C, 3-O-methylfluorescein fluorescent emission was measured with a CytoFluor system (Perspective Applied Biosystems, Villebon-sur-Yvette, France; excitation filter: 475 nm; emission filter: 510 nm).
(§4) Assays were performed in triplicate, and the experiment was independently performed three times. The results are expressed as percentage of inhibition of CDC25 phosphatase activity in presence of the tested compounds (and compared to DMSO control). All compounds were tested at a 100 µM concentration. Naphtoquinone (20 µM) was used as positive reference inhibitor.
(§5) IC50 values for CDC25 inhibition were evaluated by in vitro fluorimetric assays and were determined with sigmoid curves plotted by using a non-linear approximation model based on the least square method (GraphPad Prism software, La Jolla, CA).

[2] = biological target: T2, human CDC25B (recombinant GST-CDC25) (Homo sapiens, UniProt P30305); experiment: CDC25B dephosphorylation assay with 3-O-methylfluorescein phosphate (fluorimetric); conditions: for remaining activity at 100 µM: 100 µM compound, DMSO control = 100%, read-out: residual activity of CDC25B; for IC50 / IC50 CDC25B: mean of triplicates ± SD
T2 construct: made in house; host or cells: Escherichia coli BL21-DE3 pLys S
T2 sequence (P30305 1-580): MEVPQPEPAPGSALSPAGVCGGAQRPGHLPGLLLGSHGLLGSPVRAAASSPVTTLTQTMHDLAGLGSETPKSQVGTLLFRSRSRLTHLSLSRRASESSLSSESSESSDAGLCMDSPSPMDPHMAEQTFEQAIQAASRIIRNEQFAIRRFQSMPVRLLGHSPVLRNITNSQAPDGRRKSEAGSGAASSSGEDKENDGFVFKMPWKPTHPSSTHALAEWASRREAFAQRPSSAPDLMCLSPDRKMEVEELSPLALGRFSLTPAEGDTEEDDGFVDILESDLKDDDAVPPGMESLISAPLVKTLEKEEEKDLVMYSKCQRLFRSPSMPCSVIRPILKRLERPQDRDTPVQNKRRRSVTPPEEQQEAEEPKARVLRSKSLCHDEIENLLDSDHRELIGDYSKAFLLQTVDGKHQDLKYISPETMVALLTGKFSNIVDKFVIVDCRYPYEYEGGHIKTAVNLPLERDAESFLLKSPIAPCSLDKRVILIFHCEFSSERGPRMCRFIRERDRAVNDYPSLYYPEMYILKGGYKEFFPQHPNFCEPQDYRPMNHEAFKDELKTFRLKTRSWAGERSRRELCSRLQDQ
Source text: as §1, §2, §3, §4, §5

[3] = biological target: T3, human CDC25C (recombinant GST-CDC25) (Homo sapiens, UniProt P30307); experiment: CDC25C dephosphorylation assay with 3-O-methylfluorescein phosphate (fluorimetric); conditions: for remaining activity at 100 µM: 100 µM compound, DMSO control = 100%, read-out: residual activity of CDC25C; for IC50: mean of triplicates ± SD
T3 construct: made in house; host or cells: Escherichia coli BL21-DE3 pLys S
T3 sequence (P30307 1-473): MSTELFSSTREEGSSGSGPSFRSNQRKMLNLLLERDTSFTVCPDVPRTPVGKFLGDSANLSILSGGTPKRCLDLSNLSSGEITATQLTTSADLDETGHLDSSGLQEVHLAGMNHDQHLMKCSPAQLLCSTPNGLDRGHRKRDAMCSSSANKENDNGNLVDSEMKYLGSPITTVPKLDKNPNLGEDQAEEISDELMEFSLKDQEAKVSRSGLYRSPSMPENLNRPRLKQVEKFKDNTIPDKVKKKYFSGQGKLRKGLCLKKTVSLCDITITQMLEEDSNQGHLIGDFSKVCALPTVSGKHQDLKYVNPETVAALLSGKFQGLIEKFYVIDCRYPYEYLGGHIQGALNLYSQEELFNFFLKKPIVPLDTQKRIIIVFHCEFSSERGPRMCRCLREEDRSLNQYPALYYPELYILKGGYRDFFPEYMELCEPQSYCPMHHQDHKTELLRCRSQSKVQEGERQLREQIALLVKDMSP
Source text: as §1, §2, §3, §4, §5

`COC1=CC(=O)C=C([S@@+]([O-])c2ccc(C)cc2)C1=O` [Compound 1] gave an IC50 [1] of 2.64 ± 0.62 µM.
`COCC1=CC(=O)C(C)=C([S@@+]([O-])c2ccc(C)cc2)C1=O` [Compound 2] was tested, and the remaining activity at 100 µM [2] was > 10%, the remaining activity at 100 µM [3] was > 10% and the remaining activity at 100 µM [1] was > 10%.
In the case of `CCOC1=CC(=O)C(C)=C([S@@+]([O-])c2ccc(C)cc2)C1=O` [Compound 3], the IC50 [2] is reported as 11.1 ± 1.01 µM, the “IC50 CDC25B” value [2] is reported as “double digit micromolar” and the IC50 [3] is reported as 5.41 ± 0.52 µM. It also gave an IC50 [1] of 3.19 ± 1.02 µM.
`COC1=CC(=O)[C@]2(C)CC=C3CO[C@@H](c4ccoc4)CC3[C@]2([S@@+]([O-])c2ccc(C)cc2)C1=O` (stereo partly drawn) [Compound 4] was tested, and the IC50 [2] was 18.2 ± 1.68 µM, the “IC50 CDC25B” value [2] was “double digit micromolar” and the IC50 [3] was 9.43 ± 1.25 µM. It also gave an IC50 [1] of 3.73 ± 1.53 µM.
For `COC1=CC(=O)[C@]2(C)CC=C3CO[C@@H](c4ccccc4)CC3[C@]2([S@@+]([O-])c2ccc(C)cc2)C1=O` (stereo partly drawn) [Compound 5], the IC50 [2] was 7.46 ± 2.17 µM, the IC50 [3] was 5.76 ± 0.42 µM and the IC50 [1] was 2.53 ± 0.23 µM.
`COC1=CC(=O)[C@]2(C)CC=C3CO[C@@H](c4ccccc4)CC3C2C1=O` (stereo partly drawn) [Compound 6] was tested, and the remaining activity at 100 µM [2] was > 10%, the remaining activity at 100 µM [3] was > 10% and the remaining activity at 100 µM [1] was > 10%.
With `COC1=CC(=O)[C@]2(C)CC=C3CO[C@@H](c4ccoc4)CC3C2[C@H]1O` (stereo partly drawn) [Compound 7] the remaining activity at 100 µM [2] was > 10%, the remaining activity at 100 µM [3] was > 10% and the remaining activity at 100 µM [1] was > 10%.
